PubChem BioAssay (NCI)
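1) Cells in 96-well plates. 2) Compound, 48 h, 5 concentrations. 3) Linear interpolation between surrounding doses. 4) Unreached endpoint = highest concentration. TGI denotes the concentration required for complete inhibition of growth.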

Legend:
Assay in all cases: NCI-60 cell line screen, 48 h
786-0 renal = test system: 786-0 renal
A498 renal = test system: A498 renal
A549 NSCLC = test system: A549 NSCLC
ACHN renal = test system: ACHN renal
CAKI-1 renal = test system: CAKI-1 renal
CCRF-CEM leukemia = test system: CCRF-CEM leukemia
COLO 205 colon = test system: COLO 205 colon
DMS 114 small cell lung = test system: DMS 114 small cell lung
DMS 273 small cell lung = test system: DMS 273 small cell lung
EKVX NSCLC = test system: EKVX NSCLC
HCC-2998 colon = test system: HCC-2998 colon
HCT-116 colon = test system: HCT-116 colon
HCT-15 colon = test system: HCT-15 colon
HL-60(TB) leukemia = test system: HL-60(TB) leukemia
HOP-18 NSCLC = test system: HOP-18 NSCLC
HOP-62 NSCLC = test system: HOP-62 NSCLC
HOP-92 NSCLC = test system: HOP-92 NSCLC
HT29 colon = test system: HT29 colon
IGROV1 ovarian = test system: IGROV1 ovarian
K-562 leukemia = test system: K-562 leukemia
KM12 colon = test system: KM12 colon
KM20L2 colon = test system: KM20L2 colon
LOX IMVI melanoma = test system: LOX IMVI melanoma
LXFL 529 NSCLC = test system: LXFL 529 NSCLC
M14 melanoma = test system: M14 melanoma
M19-MEL melanoma = test system: M19-MEL melanoma
MALME-3M melanoma = test system: MALME-3M melanoma
MOLT-4 leukemia = test system: MOLT-4 leukemia
NCI-H23 lung = test system: NCI-H23 lung
NCI-H460 lung = test system: NCI-H460 lung
NCI-H522 lung = test system: NCI-H522 lung
OVCAR-3 ovarian = test system: OVCAR-3 ovarian
OVCAR-4 ovarian = test system: OVCAR-4 ovarian
OVCAR-5 ovarian = test system: OVCAR-5 ovarian
OVCAR-8 ovarian = test system: OVCAR-8 ovarian
RPMI-8226 leukemia = test system: RPMI-8226 leukemia
RXF 393 renal = test system: RXF 393 renal
SF-268 CNS = test system: SF-268 CNS
SF-295 CNS = test system: SF-295 CNS
SF-539 CNS = test system: SF-539 CNS
SK-MEL-2 melanoma = test system: SK-MEL-2 melanoma
SK-MEL-28 melanoma = test system: SK-MEL-28 melanoma
SK-MEL-5 melanoma = test system: SK-MEL-5 melanoma
SK-OV-3 ovarian = test system: SK-OV-3 ovarian
SN12C renal = test system: SN12C renal
SNB-19 CNS = test system: SNB-19 CNS
SNB-75 CNS = test system: SNB-75 CNS
SNB-78 CNS = test system: SNB-78 CNS
SR leukemia = test system: SR leukemia
SW-620 colon = test system: SW-620 colon
TK-10 renal = test system: TK-10 renal
U251 CNS = test system: U251 CNS
UACC-257 melanoma = test system: UACC-257 melanoma
UACC-62 melanoma = test system: UACC-62 melanoma
UO-31 renal = test system: UO-31 renal
DLD-1 colon = test system: DLD-1 colon
NCI-H226 lung = test system: NCI-H226 lung
RXF-631 renal = test system: RXF-631 renal

Measured: TGI

Cc1cc2c([nH]c3ccccc32)c2c1OC(C)(C)C1C3CC(C)(C)Oc4c(C)cc5c6ccccc6n(c5c43)C21 (stereo not drawn)
not listed: DLD-1 colon | NCI-H226 lung | RXF-631 renal
> 100 µM: all other assays above

CN1C(=O)C2C(C1=O)C1(O)c3ccccc3C2(N)c2ccccc21 (stereo not drawn)
not listed: KM20L2 colon | LXFL 529 NSCLC | NCI-H522 lung | RPMI-8226 leukemia | SR leukemia
> 100 µM: all other assays above
